Source: paper PMC5371824, “Phosphatidylinositol (4,5)-bisphosphate dynamically regulates the K2P background K^+ channel TASK-2” (Scientific Reports, 2017)
Several values for one entry are separate records, joined by “and”; a condition that tells them apart may be missing. Identical values can stand only once.

Tests used:
[1] = target: T1, TASK-2 (Mus musculus, UniProt F6V9U5); experiment: Excised inside-out patch recording from HEK-293 cells over-expressing TASK-2; type: biochemical
T1 construct: expressed in transfected cells; host or cells: HEK-293
T1 sequence (F6V9U5 1-502): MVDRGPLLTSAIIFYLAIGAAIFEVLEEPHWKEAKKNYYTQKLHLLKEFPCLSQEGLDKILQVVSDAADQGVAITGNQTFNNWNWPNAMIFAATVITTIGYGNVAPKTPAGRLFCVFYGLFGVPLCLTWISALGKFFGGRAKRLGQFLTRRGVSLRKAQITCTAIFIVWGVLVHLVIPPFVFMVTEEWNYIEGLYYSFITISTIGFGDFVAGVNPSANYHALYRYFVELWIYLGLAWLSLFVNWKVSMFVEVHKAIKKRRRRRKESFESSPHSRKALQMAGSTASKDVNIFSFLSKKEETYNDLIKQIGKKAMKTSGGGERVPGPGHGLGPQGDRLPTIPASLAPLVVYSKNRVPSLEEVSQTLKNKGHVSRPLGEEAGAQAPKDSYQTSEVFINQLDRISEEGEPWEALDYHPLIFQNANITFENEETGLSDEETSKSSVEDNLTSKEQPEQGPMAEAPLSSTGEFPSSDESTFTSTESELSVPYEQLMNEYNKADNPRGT
Method: HEK-293 cells were cultured in Dulbecco’s modified Eagle’s medium (DMEM) and F12 Ham’s medium at a 1:1 ratio and supplemented with 10% fetal calf serum at 37 °C in 5% CO2. For electrophysiological experiments, transient transfections were performed by electroporation, using CD8 cotransfection to identify effectively transfected cells. […] Experiments were performed 4–8 h after electroporation.
Recordings in the inside-out isolated patch configuration were performed in the gap-free mode at −60 mV. The inside aspect of the patch was bathed with a solution containing in mM: 10 KCl, 10 Glucose, 1 MgCl2, 10 EGTA, 1 Na3ATP, 0.1 GTP, 6.8 g/100 ml Sucrose, 10 Hepes/Tris, pH 7.4. The pipette contained in mM: 140 KCl, 10 Glucose, 6.8 g/100 ml Sucrose, 10 Hepes/Tris pH 7.4. For isolated patches, borosilicate capillaries (Harvard Apparatus GC150F-10 1.5 ODx0.86 ID) were fire polished to 4–5 MΩ and covered in beeswax. Acquisition was at 10 kHz with filter at 3 kHz (4-pole Bessel) and analysis was done with Clampfit 9.0 (Axon Instruments, Foster City, CA, USA). Traces shown are prints from crude Clampfit screen shots and quantification was done using the average currents were calculated at intervals using Clampfit after baseline adjustment.

[2] = system: KCNQ1/KCNE1; design: method as in PMID 21576493; conditions: read-out: EC50 for PI(4,5)P2 effect; cited from earlier work

Effect of readmitted ATP relative to the maximal effect elicited by the PIP ([1]; 1 mM ATP added after PIP, inside-out patches, Fig. S3): 1.7 fold | Stimulating effect on TASK-2-mediated currents after run-down ([1]; diC8 PIP added to inside-out excised patches, absence of ATP): Robust, but intermediate effects | Maximal fold effect on TASK-2 current (normalised to current in absence of PIP) ([1]; diC8 PIP, inside-out patch, -60 mV, absence of ATP, from fits, means ± SEM): 3.7 ± 0.2 fold | EC50 ([1]; diC8 PIP, inside-out patch, -60 mV, absence of ATP, from fits, means ± SEM, read-out: K0.5 (EC50) for activation of TASK-2 current): 34.9 µM and 35 µM
Structure (SMILES): CCCCCCCC(=O)OC[C@H](COP(=O)(O)O[C@@H]1[C@H](O)[C@H](O)[C@@H](OP(=O)(O)O)[C@H](OP(=O)(O)O)[C@H]1O)OC(=O)CCCCCCC [PI(4,5)P2, phosphatidylinositol 4,5-bisphosphate diC8]
EC50 [2]: 5 µM
